We go through 1 compound from US20260166065A1 (priority 2023, published 2026).

This series deals with PA-IL (lectin A, Lec A) (Pseudomonas aeruginosa, UniProt Q05097). Nature of the series: Lectin histochemistry: D-galactose blocking of biotinylated PA-IL binding to human respiratory epithelia, in relation to storage time of the sugar solution. The following applies: for PA-IL lectin binding at the cilia of human respiratory epithelia in presence of D-galactose: 5 μg/ml PA-IL. As to the method:
Tissue preparation and lectin histological staining has been described (Schreiber et al. (2014) Anticancer Res. 34 (12): 7045-53). Five μm thick sections of human airway epithelium were applied to Adhesion Micro Slides (Histo Bond®; Marienfeld GmbH, Lauda-Königshofen Germany). Slides were deparaffinized and rehydrated through a series of graded ethanol to distilled water. […] Deparaffinized sections were briefly incubated in lectin buffer (LB) consisting of tris-buffered saline (TBS contained Trizma Base, 50 mM Tris; Sigma, Steinheim, Germany), sodium chloride (150 mM; J. T. Baker, Deventer, the Netherlands) and hydrochloric acid (Merck, Darmstadt, Germany) in distilled water (adjusted to pH 7.6) with addition of 1% MgCl2 and 1% CaCl2) (Merck, Darmstadt Germany). Sections were then treated with 0.1% trypsin (Biochrom KG, Berlin, Germany) dissolved in LB and incubated for 10 min at 37° C. To stop the digestion of the sections with trypsin, the sections were washed in running tap water for 5 min. […] This step was followed by three washes (5 min each) in TBS. Afterwards the sections were incubated with alkaline phosphatase streptavidin complex (Vectastain® ABC-Kit; Vector Laboratories) in a humid chamber for 30 min. After final three rinsings (5 min each) in TBS, sections were transferred into the visualizing mixture containing naphthol-AS-biphosphate, hexatozised new fuchsin, dimethylformamide and tween 20 (all from Sigma-Aldrich Chemie, Darmstadt, Germany) applied in the dark for 20 min to visualize enzyme reactivity. To stop the enzyme reaction, the sections were washed in running tap water (7 min) and were then transferred into distilled water (2 min). Counterstaining was performed using Mayer's hemalum (Merck). The sections were dehydrated and subsequently covered using a resinous permanent mounting medium (Eukitt, Kindler GmbH, Freiburg, Germany). Slides were first evaluated using a ZEISS Axiophot 2 microscope (Carl Zeiss, Jena, Germany). Digital images were obtained with a ZEISS Axio Scan Z1 slide scanner equipped with a ZEISS EC Plan-Neofluar 20×/0.50 Pol M27 objective (Carl Zeiss, Jena, Germany) and a Hitachi HV-F20SCL camera with 1600×1200 pixels (Hitachi Kokusai Electric America Ltd., New York, USA). For image acquisition ZEISS ZEN 2.3 software was used (Carl Zeiss, Jena, Germany). Images were further processed with netScope Viewer software (Net-Base Software, Freiburg, Germany).
For the PA-IL blocking experiments, 10 μg/ml PA-IL solution dissolved in LB was incubated 1:1 with a freshly prepared D-galactose solution (Merck, Darmstadt) for 30 min resulting in a final 5 μg/ml PA-IL solution before applying the mixture to the sections. The final concentration of D-galactose in solution ranged from 0.3 mM to 0.0375 mM D-galactose.
To analyze the loss of D-galactose activity to block PA-IL tissue binding in relation to storage time in an aqueous solution, D-galactose was dissolved in water and then stored for different durations (for 0, 40, 80, 160, 320 minutes as well as 12 and 24 h). After storage D-galactose was mixed with the PA-IL solution and used to incubate human respiratory epithelial tissue samples as described previously.

PA-IL (lectin A, Lec A), sequence (Q05097 whole entry): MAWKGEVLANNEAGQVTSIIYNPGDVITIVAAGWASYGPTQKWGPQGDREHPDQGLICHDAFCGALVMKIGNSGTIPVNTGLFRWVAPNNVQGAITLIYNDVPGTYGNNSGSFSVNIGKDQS

Turning to `O=C[C@H](O)[C@@H](O)[C@@H](O)[C@H](O)CO` [D-galactose], the “PA-IL lectin binding at the cilia of human respiratory epithelia in presence of D-galactose” value (0.0375 mM D-galactose stored 80 minutes in water, FIG. 8) was “significantly reduced, but not completely abolished” and the “PA-IL lectin binding at the cilia of human respiratory epithelia in presence of D-galactose” value (freshly dissolved 0.0375 mM D-galactose, time point 0, FIG. 7) is on record as “abolished”. In addition, the “PA-IL blocking activity of aqueous D-galactose solution” value (after 80 minutes storage time in aqueous solution) is recorded as “nearly abolished”. Besides, for the setting “freshly prepared solution”, the “PA-IL blocking efficacy of aqueous D-galactose solution” value is given as “significant blocking activity”. The “period of storage in aqueous solution over which PA-IL blocking efficacy is lost” value (storage in aqueous solution) is reported as “approximately 80 minutes”.
